{
  "source": "paper PMC12073402",
  "about": "“A Selective MAP3K1 Inhibitor Facilitates Discovery of NPM1 as a Member of the Network” (Molecules, 2025)",
  "assay_in_all_cases": "KiNativ kinome profiling in PANC-1 lysate",
  "format_in_all_cases": "binding",
  "key": {"NEK7": {"biological_target": "T1, NEK7 (Homo sapiens, UniProt Q8TDX7)", "T1 construct": "endogenous in cells; host or cells: PANC-1 cell lysate", "T1 sequence (Q8TDX7 whole entry)": "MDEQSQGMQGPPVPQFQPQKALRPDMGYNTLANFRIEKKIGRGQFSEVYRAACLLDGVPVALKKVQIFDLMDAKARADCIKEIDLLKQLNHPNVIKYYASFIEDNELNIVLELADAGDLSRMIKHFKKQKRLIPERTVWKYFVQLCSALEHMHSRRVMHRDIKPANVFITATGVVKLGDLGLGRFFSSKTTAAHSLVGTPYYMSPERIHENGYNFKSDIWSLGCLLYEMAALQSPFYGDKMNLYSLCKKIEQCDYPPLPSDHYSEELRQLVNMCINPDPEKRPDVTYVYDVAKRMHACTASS", "details": "Lys1", "procedure,_shortened": "(§1)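 PANC-1 lysates were incubated with 5 μM inhibitor or DMSO, then labeled with a desthiobiotin-ATP acyl-phosphate probe that biotinylates conserved kinase lysines. Tryptic peptides were streptavidin-enriched and quantified by LC-MS/MS, reported as % change in MS signal from duplicate treated and duplicate control samples.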"}, "ROCK1, ROCK2": {"test_system": "ROCK1, ROCK2", "details": "5 µM", "procedure,_shortened": "as §1"}, "IRE1": {"biological_target": "T2, IRE1 (Homo sapiens, UniProt O75460)", "T2 construct": "we opted to conduct a kinome screen (KiNativ) in PANC-1 cell lysates; endogenous in cells; host or cells: PANC-1 cell lysate", "T2 sequence (O75460 19-977)": "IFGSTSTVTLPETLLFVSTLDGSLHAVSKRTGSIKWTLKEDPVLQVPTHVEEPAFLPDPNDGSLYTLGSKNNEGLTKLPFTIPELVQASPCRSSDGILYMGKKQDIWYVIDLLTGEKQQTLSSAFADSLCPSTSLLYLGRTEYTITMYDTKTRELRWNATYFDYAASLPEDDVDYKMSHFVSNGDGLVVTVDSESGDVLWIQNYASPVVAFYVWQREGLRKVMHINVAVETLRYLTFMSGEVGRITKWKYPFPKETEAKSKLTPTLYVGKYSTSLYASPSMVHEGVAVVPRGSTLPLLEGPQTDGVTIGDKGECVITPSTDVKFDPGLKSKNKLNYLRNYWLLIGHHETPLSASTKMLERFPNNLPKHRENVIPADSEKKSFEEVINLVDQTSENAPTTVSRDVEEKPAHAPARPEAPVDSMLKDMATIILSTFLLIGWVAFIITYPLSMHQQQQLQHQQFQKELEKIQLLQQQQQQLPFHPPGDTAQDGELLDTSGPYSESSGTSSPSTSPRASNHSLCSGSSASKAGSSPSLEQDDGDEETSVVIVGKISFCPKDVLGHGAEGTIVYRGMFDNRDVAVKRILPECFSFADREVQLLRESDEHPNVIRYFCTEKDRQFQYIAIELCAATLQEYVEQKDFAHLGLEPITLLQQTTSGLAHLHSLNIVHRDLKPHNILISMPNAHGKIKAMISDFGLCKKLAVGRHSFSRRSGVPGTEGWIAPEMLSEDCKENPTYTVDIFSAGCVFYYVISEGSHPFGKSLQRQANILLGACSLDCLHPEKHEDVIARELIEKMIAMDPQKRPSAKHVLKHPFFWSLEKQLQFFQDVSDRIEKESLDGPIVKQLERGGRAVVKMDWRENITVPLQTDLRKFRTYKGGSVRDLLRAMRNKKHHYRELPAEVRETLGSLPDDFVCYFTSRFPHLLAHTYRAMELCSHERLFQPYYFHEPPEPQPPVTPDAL", "procedure,_shortened": "as §1"}, "CHK2": {"biological_target": "T3, CHK2 (Homo sapiens, UniProt O96017)", "T3 construct": "endogenous in cells; host or cells: PANC-1 cell lysate", "T3 sequence (O96017 whole entry)": "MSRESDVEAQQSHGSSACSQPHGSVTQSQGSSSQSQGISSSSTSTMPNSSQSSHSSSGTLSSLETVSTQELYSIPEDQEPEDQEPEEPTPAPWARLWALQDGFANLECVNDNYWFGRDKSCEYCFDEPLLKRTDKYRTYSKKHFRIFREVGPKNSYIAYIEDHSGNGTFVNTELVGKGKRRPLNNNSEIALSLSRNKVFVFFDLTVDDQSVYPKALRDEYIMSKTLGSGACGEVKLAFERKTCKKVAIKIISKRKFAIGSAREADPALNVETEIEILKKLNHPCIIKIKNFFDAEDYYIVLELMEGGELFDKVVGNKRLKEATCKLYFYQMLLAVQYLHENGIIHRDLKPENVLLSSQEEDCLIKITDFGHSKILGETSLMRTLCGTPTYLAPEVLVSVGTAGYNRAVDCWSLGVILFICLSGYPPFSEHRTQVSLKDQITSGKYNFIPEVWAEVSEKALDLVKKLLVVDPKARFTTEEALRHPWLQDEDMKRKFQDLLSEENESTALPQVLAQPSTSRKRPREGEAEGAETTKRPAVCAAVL", "procedure,_shortened": "as §1"}, "FAM20B": {"biological_target": "T4, FAM20B (Homo sapiens, UniProt O75063)", "T4 construct": "endogenous in cells; host or cells: PANC-1 lysate", "details": "ATP", "procedure,_shortened": "as §1"}, "JNK1, JNK2, JNK3": {"test_system": "JNK1, JNK2, JNK3", "details": "5 µM; Lys2; DLKPSNIVVK", "procedure,_shortened": "as §1"}, "MAP3K2": {"biological_target": "T5, MAP3K2 (Homo sapiens, UniProt Q9Y2U5)", "T5 construct": "endogenous in cells; host or cells: PANC-1 cell lysate", "details": "Lys1", "procedure,_shortened": "as §1"}, "Wnk1, Wnk2": {"test_system": "Wnk1, Wnk2", "details": "5 µM; ATP Loop; GSFKTVYK", "procedure,_shortened": "as §1"}, "RSK2 domain1": {"biological_target": "T6, RSK2 domain1 (Homo sapiens, UniProt P51812)", "T6 construct": "endogenous in cells; host or cells: PANC-1 cell lysate", "T6 sequence (P51812 whole entry, the tested form may be a part)": "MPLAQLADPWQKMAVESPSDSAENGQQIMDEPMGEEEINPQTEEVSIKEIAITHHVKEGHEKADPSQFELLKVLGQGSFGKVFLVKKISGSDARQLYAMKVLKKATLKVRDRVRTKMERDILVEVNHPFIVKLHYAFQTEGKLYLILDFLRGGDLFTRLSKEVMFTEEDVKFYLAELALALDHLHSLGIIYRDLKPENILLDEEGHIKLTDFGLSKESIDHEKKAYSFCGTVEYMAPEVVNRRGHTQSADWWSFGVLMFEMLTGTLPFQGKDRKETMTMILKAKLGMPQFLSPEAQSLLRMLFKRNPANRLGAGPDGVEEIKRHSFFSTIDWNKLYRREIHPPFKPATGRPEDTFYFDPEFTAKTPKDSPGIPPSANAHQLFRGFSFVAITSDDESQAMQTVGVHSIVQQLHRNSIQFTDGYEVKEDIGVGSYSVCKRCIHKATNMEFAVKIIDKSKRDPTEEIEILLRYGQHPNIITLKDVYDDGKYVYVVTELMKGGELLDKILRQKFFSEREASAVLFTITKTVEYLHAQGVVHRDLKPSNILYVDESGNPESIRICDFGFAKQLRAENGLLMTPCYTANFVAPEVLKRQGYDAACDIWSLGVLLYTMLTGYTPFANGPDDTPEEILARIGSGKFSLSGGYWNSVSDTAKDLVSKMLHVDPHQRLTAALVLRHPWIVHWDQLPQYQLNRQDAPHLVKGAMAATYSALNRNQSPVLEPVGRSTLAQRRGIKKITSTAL", "procedure,_shortened": "as §1"}, "MAP2K4": {"biological_target": "T7, MAP2K4 (Homo sapiens, UniProt P45985)", "T7 construct": "endogenous in cells; host or cells: PANC-1 cell lysate", "T7 sequence (P45985 whole entry)": "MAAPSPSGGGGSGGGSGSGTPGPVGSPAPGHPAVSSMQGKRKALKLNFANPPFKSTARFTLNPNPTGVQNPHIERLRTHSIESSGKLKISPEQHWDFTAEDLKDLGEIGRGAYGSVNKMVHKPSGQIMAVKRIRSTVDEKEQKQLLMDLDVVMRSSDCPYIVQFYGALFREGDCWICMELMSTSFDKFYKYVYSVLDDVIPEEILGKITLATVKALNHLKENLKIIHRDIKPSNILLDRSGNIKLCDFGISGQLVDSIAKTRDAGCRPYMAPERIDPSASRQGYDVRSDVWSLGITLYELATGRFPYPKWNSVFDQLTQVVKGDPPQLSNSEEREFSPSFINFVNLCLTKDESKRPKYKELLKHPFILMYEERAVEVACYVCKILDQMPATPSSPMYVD", "procedure,_shortened": "as §1"}, "CCRK": {"biological_target": "T8, CCRK (Homo sapiens, UniProt Q8IZL9)", "T8 construct": "endogenous in cells; host or cells: PANC-1 cell lysate", "details": "Lys2", "procedure,_shortened": "as §1"}, "MAP4K5": {"biological_target": "T9, MAP4K5 (Homo sapiens, UniProt Q9Y4K4)", "T9 construct": "endogenous in cells; host or cells: PANC-1 cell lysate", "T9 sequence (Q9Y4K4 whole entry)": "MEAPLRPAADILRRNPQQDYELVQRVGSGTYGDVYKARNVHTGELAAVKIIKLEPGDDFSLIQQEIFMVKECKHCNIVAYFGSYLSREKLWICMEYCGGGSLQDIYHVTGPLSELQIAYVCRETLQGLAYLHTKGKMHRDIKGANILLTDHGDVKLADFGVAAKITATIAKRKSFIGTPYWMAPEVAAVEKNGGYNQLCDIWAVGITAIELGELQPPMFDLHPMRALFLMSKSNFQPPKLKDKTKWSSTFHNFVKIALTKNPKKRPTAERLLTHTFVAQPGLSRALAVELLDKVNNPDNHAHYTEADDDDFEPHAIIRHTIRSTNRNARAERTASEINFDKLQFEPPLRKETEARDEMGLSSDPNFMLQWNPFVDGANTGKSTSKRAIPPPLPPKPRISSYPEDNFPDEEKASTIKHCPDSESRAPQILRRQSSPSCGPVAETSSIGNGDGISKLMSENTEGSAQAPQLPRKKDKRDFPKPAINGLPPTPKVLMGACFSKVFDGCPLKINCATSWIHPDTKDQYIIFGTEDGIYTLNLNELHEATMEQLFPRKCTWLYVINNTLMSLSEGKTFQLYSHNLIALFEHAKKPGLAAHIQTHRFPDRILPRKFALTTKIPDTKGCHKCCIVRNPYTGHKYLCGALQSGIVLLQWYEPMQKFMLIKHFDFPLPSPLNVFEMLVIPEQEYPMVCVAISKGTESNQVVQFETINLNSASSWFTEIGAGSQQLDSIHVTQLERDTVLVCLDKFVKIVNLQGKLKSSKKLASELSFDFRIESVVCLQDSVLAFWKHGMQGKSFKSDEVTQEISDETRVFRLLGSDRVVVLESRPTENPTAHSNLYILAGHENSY", "procedure,_shortened": "as §1"}, "CLK1": {"biological_target": "T10, CLK1 (Homo sapiens, UniProt P49759)", "T10 construct": "endogenous in cells; host or cells: PANC-1 cell lysate", "details": "Lys2", "procedure,_shortened": "as §1"}, "MLK1": {"biological_target": "T11, MLK1 (Homo sapiens, UniProt P80192)", "T11 construct": "endogenous in cells; host or cells: PANC-1", "details": "Lys2", "procedure,_shortened": "as §1"}, "MARK3, MARK4": {"test_system": "MARK3, MARK4", "details": "5 µM; Lys1; EVAIKIIDK", "procedure,_shortened": "as §1"}, "AMPKa1, AMPKa2": {"test_system": "AMPKa1, AMPKa2", "details": "5 µM", "procedure,_shortened": "as §1"}, "MAST1, MAST2": {"test_system": "MAST1, MAST2", "details": "5 µM; Lys2; DLKPDNLLITSMGHIK", "procedure,_shortened": "as §1"}, "PEK": {"biological_target": "T12, PEK (Homo sapiens, UniProt Q9NZJ5)", "T12 construct": "endogenous in cells; host or cells: PANC-1 cell lysate", "details": "Lys2", "procedure,_shortened": "as §1"}, "CDK9": {"biological_target": "T13, CDK9 (Homo sapiens, UniProt P50750)", "T13 construct": "endogenous in cells; host or cells: PANC-1 cell lysate", "T13 sequence (P50750 whole entry)": "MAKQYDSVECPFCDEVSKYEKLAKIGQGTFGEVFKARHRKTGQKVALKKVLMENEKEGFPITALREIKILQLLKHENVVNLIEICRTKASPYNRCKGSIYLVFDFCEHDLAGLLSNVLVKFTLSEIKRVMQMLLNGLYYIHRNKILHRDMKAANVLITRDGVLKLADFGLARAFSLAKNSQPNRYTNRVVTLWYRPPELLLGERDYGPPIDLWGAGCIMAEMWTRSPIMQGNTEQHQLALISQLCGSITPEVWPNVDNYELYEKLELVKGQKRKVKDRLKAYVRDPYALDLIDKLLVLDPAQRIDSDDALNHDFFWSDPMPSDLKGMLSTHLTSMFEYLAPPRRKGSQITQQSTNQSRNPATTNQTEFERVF", "procedure,_shortened": "as §1"}, "RIPK2": {"biological_target": "T14, RIPK2 (Homo sapiens, UniProt O43353)", "T14 construct": "endogenous in cells; host or cells: PANC-1 cell lysate", "details": "Lys2", "procedure,_shortened": "as §1"}, "HRI": {"biological_target": "T15, HRI (Homo sapiens, UniProt Q9BQI3)", "T15 construct": "we opted to conduct a kinome screen (KiNativ) in PANC-1 cell lysates; endogenous in cells; host or cells: PANC-1 cell lysate", "details": "ATP Loop", "procedure,_shortened": "as §1"}, "PFTAIRE1": {"biological_target": "T16, PFTAIRE1 (Homo sapiens, UniProt O94921)", "T16 construct": "endogenous in cells; host or cells: PANC-1 cell lysate", "details": "Lys1", "procedure,_shortened": "as §1"}, "AurB": {"biological_target": "T17, AurB (Homo sapiens, UniProt Q96GD4)", "T17 construct": "endogenous in cells; host or cells: PANC-1 cell lysate", "details": "Lys1", "procedure,_shortened": "as §1"}, "PKD2": {"biological_target": "T18, PKD2 (Homo sapiens, UniProt Q9BZL6)", "T18 construct": "endogenous in cells; host or cells: PANC-1 cell lysate", "T18 sequence (Q9BZL6 whole entry)": "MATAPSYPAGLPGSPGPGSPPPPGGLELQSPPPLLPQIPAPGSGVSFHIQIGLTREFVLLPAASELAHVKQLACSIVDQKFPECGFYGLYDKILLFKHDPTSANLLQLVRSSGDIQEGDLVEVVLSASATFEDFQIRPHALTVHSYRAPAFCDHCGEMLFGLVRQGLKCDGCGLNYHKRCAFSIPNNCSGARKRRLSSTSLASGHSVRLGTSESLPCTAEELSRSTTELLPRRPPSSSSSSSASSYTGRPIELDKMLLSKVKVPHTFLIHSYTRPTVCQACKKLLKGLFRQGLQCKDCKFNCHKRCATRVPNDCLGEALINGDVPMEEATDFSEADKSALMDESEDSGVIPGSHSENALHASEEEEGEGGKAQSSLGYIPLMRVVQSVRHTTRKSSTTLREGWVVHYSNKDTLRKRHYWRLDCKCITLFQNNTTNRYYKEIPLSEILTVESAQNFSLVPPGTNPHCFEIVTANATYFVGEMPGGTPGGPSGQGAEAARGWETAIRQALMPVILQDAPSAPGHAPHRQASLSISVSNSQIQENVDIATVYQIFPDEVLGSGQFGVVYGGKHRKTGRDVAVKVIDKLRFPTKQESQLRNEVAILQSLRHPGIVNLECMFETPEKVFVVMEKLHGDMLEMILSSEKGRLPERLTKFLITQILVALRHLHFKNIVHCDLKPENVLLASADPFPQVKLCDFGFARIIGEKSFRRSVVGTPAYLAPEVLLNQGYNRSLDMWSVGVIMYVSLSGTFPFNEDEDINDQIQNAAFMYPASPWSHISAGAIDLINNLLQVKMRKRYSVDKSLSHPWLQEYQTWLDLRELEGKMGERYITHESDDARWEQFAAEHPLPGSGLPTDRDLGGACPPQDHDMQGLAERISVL", "details": "Lys1", "procedure,_shortened": "as §1"}, "PCTAIRE1, PCTAIRE3": {"test_system": "PCTAIRE1, PCTAIRE3", "details": "5 µM; Lys2; DLKPQNLLINER", "procedure,_shortened": "as §1"}, "DCAMKL2": {"biological_target": "T19, DCAMKL2 (Homo sapiens, UniProt Q8N568)", "T19 construct": "endogenous in cells; host or cells: PANC-1 lysate", "details": "Lys2", "procedure,_shortened": "as §1"}},
  "data": [
    {"smiles": "Cn1cc(-c2cnc3ccc(NC(=O)Nc4ccc(F)c(C(F)(F)F)c4)cc3n2)cn1", "note": "[51-106, 1-(4-Fluoro-3-(trifluoromethyl)phenyl)-3-(3-(1-methyl-1H-pyrazol-4-yl)quinoxalin-6-yl)urea]", "values": [
      {"measurement": "inhibition at 5 µM", "setting": "NEK7", "result": 10.3, "unit": "%"},
      {"measurement": "% Inhibition", "setting": "ROCK1, ROCK2; Lys1, VYAMKLLSK", "result": 11.9, "unit": "%"},
      {"measurement": "% Inhibition", "setting": "ROCK1, ROCK2; Lys2, DVKPDNMLLDK", "result": "NB (NB = No Binding (≤ 0))"},
      {"measurement": "inhibition at 5 µM", "setting": "IRE1; Lys1, GMFDNRDVAVKR", "result": 8.9, "unit": "%"},
      {"measurement": "inhibition at 5 µM", "setting": "IRE1; Lys2, DLKPHNILISMPNAHGK", "result": "≤ 0", "unit": "%"},
      {"measurement": "inhibition at 5 µM", "setting": "CHK2; Lys1, VAIKIISK", "result": 14.8, "unit": "%"},
      {"measurement": "inhibition at 5 µM", "setting": "CHK2; Lys2, DLKPENVLLSSQEEDCLIK", "result": "≤ 0", "unit": "%"},
      {"measurement": "inhibition at 5 µM", "setting": "FAM20B", "result": 6.6, "unit": "%"},
      {"measurement": "% Inhibition", "setting": "JNK1, JNK2, JNK3", "result": "NB (NB = No Binding (≤ 0))"},
      {"measurement": "inhibition at 5 µM", "setting": "MAP3K2", "result": "≤ 0", "unit": "%"},
      {"measurement": "% Inhibition", "setting": "Wnk1, Wnk2", "result": "NB (NB = No Binding (≤ 0))"},
      {"measurement": "inhibition at 5 µM", "setting": "RSK2 domain1; ATP Loop, LTDFGLSKESIDHEKK", "result": "≤ 0", "unit": "%"},
      {"measurement": "inhibition at 5 µM", "setting": "RSK2 domain1; Lys1, QLYAMKVLK", "result": 23.6, "unit": "%"},
      {"measurement": "inhibition at 5 µM", "setting": "MAP2K4; ATP Loop, LCDFGISGQLVDSIAKTR", "result": 6, "unit": "%"},
      {"measurement": "inhibition at 5 µM", "setting": "MAP2K4; Lys2, DIKPSNILLDR", "result": "≤ 0", "unit": "%"},
      {"measurement": "inhibition at 5 µM", "setting": "CCRK", "result": 4.5, "unit": "%"},
      {"measurement": "inhibition at 5 µM", "setting": "MAP4K5; Lys1, NVHTGELAAVKIIK", "result": 6, "unit": "%"},
      {"measurement": "inhibition at 5 µM", "setting": "MAP4K5; Lys2, DIKGANILLTDHGDVK", "result": "≤ 0", "unit": "%"},
      {"measurement": "inhibition at 5 µM", "setting": "CLK1", "result": 0.5, "unit": "%"},
      {"measurement": "inhibition at 5 µM", "setting": "MLK1", "result": 1.5, "unit": "%"},
      {"measurement": "% Inhibition", "setting": "MARK3, MARK4", "result": "NB (NB = No Binding (≤ 0))"},
      {"measurement": "% Inhibition", "setting": "AMPKa1, AMPKa2; Lys1, VAVKILNR", "result": 7.5, "unit": "%"},
      {"measurement": "% Inhibition", "setting": "AMPKa1, AMPKa2; Lys2, DLKPENVLLDAHMNAK", "result": 8.7, "unit": "%"},
      {"measurement": "% Inhibition", "setting": "MAST1, MAST2", "result": "NB (NB = No Binding (≤ 0))"},
      {"measurement": "inhibition at 5 µM", "setting": "PEK", "result": 10.9, "unit": "%"},
      {"measurement": "% Inhibition", "setting": "CDK9; 5 µM, Lys2, DMKAANVLITR", "result": "NB (NB = No Binding (≤ 0))"},
      {"measurement": "inhibition at 5 µM", "setting": "CDK9; ATP Loop, […]", "result": "≤ 0", "unit": "%"},
      {"measurement": "inhibition at 5 µM", "setting": "RIPK2", "result": "≤ 0", "unit": "%"},
      {"measurement": "inhibition at 5 µM", "setting": "HRI", "result": "≤ 0", "unit": "%"},
      {"measurement": "inhibition at 5 µM", "setting": "PFTAIRE1", "result": 7.7, "unit": "%"},
      {"measurement": "inhibition at 5 µM", "setting": "AurB", "result": "≤ 0", "unit": "%"},
      {"measurement": "inhibition at 5 µM", "setting": "PKD2", "result": 10.6, "unit": "%"},
      {"measurement": "% Inhibition", "setting": "PCTAIRE1, PCTAIRE3", "result": 4.8, "unit": "%"},
      {"measurement": "inhibition at 5 µM", "setting": "DCAMKL2", "result": "≤ 0", "unit": "%"}
    ]}
  ]
}
